Laboratory results published in ChEMBL document CHEMBL1157188, “Structure-activity relationship of truncated analogs of caprazamycins as potential anti-tuberculosis agents” (2008).
In brackets after ≈: the same amount, converted by molar mass.

system: Mycobacterium tuberculosis; assay: Antimicrobial activity against Mycobacterium tuberculosis H37Rv by almar blue assay; type: functional

Row | SMILES | MIC50 [µg/mL]
1 | CCCCCCCCCCCCCCCC(=O)O[C@H]1CN(C)[C@@H]([C@H](O[C@@H]2O[C@H](CN)[C@@H](O)[C@H]2O)[C@H]2O[C@@H](n3ccc(=O)[nH]c3=O)[C@H](O)[C@@H]2O)C(=O)N(C)[C@@H]1C(=O)O [PALMITOYL CAPRAZOL] | 2.5 (≈ 3.07 µM)
2 | CCCCCCCCCCCCCCCC(=O)OC[C@H](NC(=O)[C@@H](N)[C@H](O[C@@H]1O[C@H](CN)[C@@H](O)[C@H]1O)[C@H]1O[C@@H](n2ccc(=O)[nH]c2=O)[C@H](O)[C@@H]1O)C(=O)O | 6.25 (≈ 8.08 µM)
3 | CN1C[C@H](O)[C@@H](C(=O)O)N(C)C(=O)[C@@H]1[C@H](O[C@@H]1O[C@H](CN)[C@@H](O)[C@H]1O)[C@H]1O[C@@H](n2ccc(=O)[nH]c2=O)[C@H](O)[C@@H]1O [CAPRAZOL] | > 100
4 | CCCCCCCCCCCCCCCC(=O)O[C@H]1CN(C)[C@@H]([C@H](O)[C@H]2O[C@@H](n3ccc(=O)[nH]c3=O)[C@H](O)[C@@H]2O)C(=O)N(C)[C@@H]1C(=O)O | > 100
5 | CCCCCCCCCCCCCCCC(=O)O[C@H]1CN(C)[C@@H]([C@@H](C)O[C@@H]2O[C@H](CN)[C@@H](O)[C@H]2O)C(=O)N(C)[C@@H]1C(=O)O | > 100

system: Mycolicibacterium smegmatis; assay: Antimicrobial activity against Mycobacterium smegmatis; type: functional

Row | SMILES | MIC [µg/mL]
6 | CCCCCCCCCCCCCCCC(=O)O[C@H]1CN(C)[C@@H]([C@H](O[C@@H]2O[C@H](CN)[C@@H](O)[C@H]2O)[C@H]2O[C@@H](n3ccc(=O)[nH]c3=O)[C@H](O)[C@@H]2O)C(=O)N(C)[C@@H]1C(=O)O [PALMITOYL CAPRAZOL] | 6.25 (≈ 7.68 µM)
7 | CO[C@@H]1[C@@H](OC)[C@H](C)O[C@@H](OC(=O)C[C@@H](C)CC(=O)O[C@@H](CCCCCCCCCC(C)C)CC(=O)O[C@H]2CN(C)[C@@H]([C@H](O[C@@H]3O[C@H](CN)[C@@H](O)[C@H]3O)[C@H]3O[C@@H](n4ccc(=O)[nH]c4=O)[C@H](O)[C@@H]3O)C(=O)N(C)[C@@H]2C(=O)O)[C@@H]1OC | 1.56 (≈ 1.38 µM)
